Test system: 817829-284-R-J1-PDC complex spheroids, viability
Experiment: Anticancer human tumor 817829-284-R-J1-PDC patient-derived colon adenocarcinoma cell line growth inhibition [GQUAD]
Settings: for IC50: curve of first compound; for viability, T/C: stronger effect = lower value
Text: DNA G-quadruplex Stabilizer Agents in Combinations in Complex Spheroids
A high-throughput screen of multi-cell type tumor spheroids was designed to identify active combinations of DNA G-quadruplex stabilizer agents and targeted small molecules. Complex spheroids include a stromal component modeled by human endothelial cells (HUVEC) and fibroblasts modeled by human mesenchymal stem cells (MSCs). The concentration ranges selected for each drug and investigational agent were based upon clinically achievable concentrations if the clinical Cmax of the agent was known.
Compounds. The drugs and investigational agents: pidnarulex (CX-5461; NSC782164), APTO-253 (NSC789042), BRACO-19 (NSC847499), peposertib (NSC802822), ceralasertib (NSC780249), elimusertib (NSC800525), camonsertib (NSC841442), AZD-1390 (NSC803789), olaparib (NSC753686), talazoparib (NSC767125), ART-558 (NSC835418), sotorasib (NSC818433), MRTX-1133 (NSC836407), SN-38 (NSC673596), topotecan (NSC609699), etoposide (NSC141540), doxorubicin (NSC123127), gemcitabine (NSC613327), 5-fluorouracil (NSC19893), paclitaxel (NSC125973), vemurafenib (NSC761431), panobinostat (NSC761190), R-306465 (JNJ-16241199; NSC773264), adavosertib (NSC754352), TP-3654 (NSC805149), carboplatin (NSC241240), KSQ-4279 (NSC840948), and staurosporine (NSC755774) were obtained from the National Cancer Institute (NCI) Developmental Therapeutics Program Chemical Repository (34). The FDA-approved anticancer drug set is available from the NCI Developmental Therapeutics Program. […] The stock solutions were prepared in dimethyl sulfoxide (DMSO, Sigma-Aldrich, St. Louis, MO, cat. D2650) at 800-fold the tested concentration and stored at -70 degrees C prior to their use. All drugs and investigational agents were tested over a range starting from a high concentration at or near the clinical Cmax and decreasing in half-log increments. If the clinical Cmax for an agent had not been determined, the highest concentration tested was 10 microM.
2.3 Cell Culture. All cells were maintained in an incubator at 37 degrees C and 5% CO2 with 95% humidity. The PDC lines were cultured according to standard operating procedures established by the NCI PDMR. All PDCs were thawed and cultured in Matrigel-coated flasks prepared with a working solution of 1X Ham's F-12 nutrient mix, without supplementation (Invitrogen, cat. 11765054), 100 U/mL penicillin-streptomycin (Invitrogen, cat. 15140122), and 2.5% Matrigel (Corning Inc., cat. 354248) for the first three passages. The 857933-349-R-J2-PDC line was cultured in 6C/Colon 1B media, which includes advanced DMEM/F-12 (Thermo Fisher Scientific, cat. 12634028), 10 mM HEPES (Thermo Fisher Scientific, cat. 15630080), 1X GlutaMAX supplement (Thermo Fisher Scientific, cat. 35050061), 0.1 mg/mL primocin (InvivoGen, cat. ant-pm-2), 10% defined fetal bovine serum, heat inactivated (HyClone Laboratories Inc., cat. SH30070.03HI), 50% L-WRN conditioned media (ATCC, cat. CRL-3276), 1.25 mM N-Acetyl-L-cysteine (Sigma-Aldrich, cat. A9165), 10 mM nicotinamide (Sigma-Aldrich, cat. N0636), 1X B-27 supplement (Thermo Fisher Scientific, cat. 17504044), 1X N-2 supplement (Thermo Fisher Scientific, cat. 17502048), 10 microM Y-27632 dihydrochloride (Tocris Bioscience, cat. 1254), and 50 ng/mL human EGF recombinant protein (Thermo Fisher Scientific, cat. PHG0311). The 485176-168-R4-J1-PDC line was cultured in Panc media, which includes all 6C/Colon 1B media components plus 100 ng/mL human FGF-10 (Thermo Fisher Scientific, cat. 100-26), 500 nM SB-431542 (Selleckchem, cat. S1067), and gastrin (Tocris, cat. 3006).
[…]
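Note: spheroids exposed to agents for 7 days before readout.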
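Throughout, for viability, T/C: percent viability relative to DMSO vehicle control taken as 100%.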

## CC1COCCN1c1cc(C2(O)CC3CCC(C2)O3)c2cnn(-c3ccn[nH]3)c2n1 (configuration not stated) + CN(C)c1ccc(Nc2c3ccc(NC(=O)CCN4CCCC4)cc3nc3cc(NC(=O)CCN4CCCC4)ccc23)cc1
Second compound 0.0316 µM
  IC50: < 31.6 nM
Second compound 0.1 µM
  IC50: < 31.6 nM
Second compound 0.316 µM
  IC50: < 31.6 nM
Second compound 1 µM
  IC50: < 31.6 nM
Second compound 3.16 µM
  IC50: < 31.6 nM
Second compound 10 µM
  IC50: < 31.6 nM
Second compound 0.0316 µM, first compound 0.0316 µM
  viability, T/C: 30%
Second compound 0.0316 µM, first compound 0.1 µM
  viability, T/C: 13.9%
Second compound 0.0316 µM, first compound 0.316 µM
  viability, T/C: 8.88%
Second compound 0.0316 µM, first compound 1 µM
  viability, T/C: 7.25%
Second compound 0.0316 µM, first compound 3.16 µM
  viability, T/C: 6.14%
Second compound 0.0316 µM, first compound 10 µM
  viability, T/C: 5.19%
Second compound 0.1 µM, first compound 0.0316 µM
  viability, T/C: 31.5%
Second compound 0.1 µM, first compound 0.1 µM
  viability, T/C: 15.1%
Second compound 0.1 µM, first compound 0.316 µM
  viability, T/C: 8.31%
Second compound 0.1 µM, first compound 1 µM
  viability, T/C: 6.53%
Second compound 0.1 µM, first compound 3.16 µM
  viability, T/C: 6.56%
Second compound 0.1 µM, first compound 10 µM
  viability, T/C: 4.3%
Second compound 0.316 µM, first compound 0.0316 µM
  viability, T/C: 29.9%
Second compound 0.316 µM, first compound 0.1 µM
  viability, T/C: 14.4%
Second compound 0.316 µM, first compound 0.316 µM
  viability, T/C: 10.4%
Second compound 0.316 µM, first compound 1 µM
  viability, T/C: 7.63%
Second compound 0.316 µM, first compound 3.16 µM
  viability, T/C: 5.34%
Second compound 0.316 µM, first compound 10 µM
  viability, T/C: 4.95%
Second compound 1 µM, first compound 0.0316 µM
  viability, T/C: 29.1%
Second compound 1 µM, first compound 0.1 µM
  viability, T/C: 16.7%
Second compound 1 µM, first compound 0.316 µM
  viability, T/C: 9.05%
Second compound 1 µM, first compound 1 µM
  viability, T/C: 6.94%
Second compound 1 µM, first compound 3.16 µM
  viability, T/C: 7.14%
Second compound 1 µM, first compound 10 µM
  viability, T/C: 4.24%
Second compound 3.16 µM, first compound 0.0316 µM
  viability, T/C: 28.9%
Second compound 3.16 µM, first compound 0.1 µM
  viability, T/C: 13.8%
Second compound 3.16 µM, first compound 0.316 µM
  viability, T/C: 9.17%
Second compound 3.16 µM, first compound 1 µM
  viability, T/C: 7.04%
Second compound 3.16 µM, first compound 3.16 µM
  viability, T/C: 7.35%
Second compound 3.16 µM, first compound 10 µM
  viability, T/C: 4.31%
Second compound 10 µM, first compound 0.0316 µM
  viability, T/C: 20.2%
Second compound 10 µM, first compound 0.1 µM
  viability, T/C: 13.6%
Second compound 10 µM, first compound 0.316 µM
  viability, T/C: 7.79%
Second compound 10 µM, first compound 1 µM
  viability, T/C: 6.03%
Second compound 10 µM, first compound 3.16 µM
  viability, T/C: 5.19%
Second compound 10 µM, first compound 10 µM
  viability, T/C: 3.21%
